Results on 17 compounds are retold here after patent US11649238B2, “Substituted pyrazolo[1,5-a]pyrimidines as PI4K inhibitors” (GLAXOSMITHKLINE INTELLECTUAL PROPERTY DEVELOPMENT LIMITED, priority 2018, dated 2023).

For experiment [1], the target named is T1, human PI4KIII-beta 13-828 (D316-330) (Homo sapiens, UniProt Q9UBF8).
T1 construct: human PI4KIII-beta 13-828 (D316-330)
The experiment in a line: PI4 KB Activity Assay (ADP-GLO Kinase assay). Type of experiment: biochemical. To be noted: 1 mM ATP, 60 μM phosphatidylinositol, 3 hours at room temperature; read-out: mean pIC50 (converted). On the procedure:
The in vitro inhibition of human PI4KIII-beta 13-828 (D316-330) activity was determined by using the ADP-GLO Kinase assay kit from Promega. Inhibitors were dissolved in 100% DMSO at a concentration of 1 mM. Dilutions were prepared in 100% DMSO using a 1 in 3 serial step dilution. A 60 nL stamp from an 11-point titration was transferred to a white low volume 384 well Greiner assay plate ensuring a final DMSO concentration of 1% across the plate and a top final concentration of inhibitor of 10 μM. The PI4KIII-beta assay contained 25 mM Hepes pH 7.5 (NaOH), 10 mM MgCl2, 0.5 mM EGTA, 0.1% Triton X-100, 2 mM TCEP, and 0.1 mg/ml BSA, 1 mM ATP, 60 μM phosphatidylinositol, and 1.5 nM human PI4K-beta 13-828 (D316-330) in a total volume of 6 μL. The assay was initiated with the addition of enzyme, covered, and incubated at room temperature for 3 hours. The assays were stopped with the addition of 6 μl ADP-GLO Reagent containing 0.1% CHAPS to deplete the unconsumed ATP. The plates were incubated at room temperature for 60 min and then 12 μl of the Kinase Detection Reagent containing 0.1% CHAPS was added to convert ADP to ATP and introduce luciferase and luciferin. After 40 min incubation at room temperature the luminescent signal was read on a BMG Labtech PHERAstar FS with the following settings; Gain 3600, Focal height 13.7 mm, measurement interval time 1 s, Settling time 0.2 s. The inhibitory effect of the PI4K-beta activity of the compounds was evaluated by the IC50 of the response relative to the high, no compound, and low, no enzyme, controls by fitting to the four parameter dose response question.

Experiment [2] deals with human rhinovirus Type A Strain 16 (HRVA16) in HeLa Ohio cells. As to the kind of experiment: Cytopathic Effect (CPE) Assay, ATP-depletion in infected HeLa Ohio cells. Type of experiment: cell-based. Particulars: Human rhinovirus sp., HRVA16, HeLa, 48 h, HRVA16 at MOI of 1, 33° C. for 2 days, CellTiter-Glo, read-out: mean pIC50 (converted). On the procedure:
c) Cytopathic Effect (CPE) Assay Protocol
The in vitro inhibition of PI4 KB activity was determined by analysis of the inhibition of ATP-depletion in HeLa Ohio cells in response to infection with human rhinovirus Type A Strain 16 (HRVA16). ATP levels were determined using CellTiter-GLO reagent from Promega. Compounds that inhibit PI4 KB are also potent inhibitors of human rhinoviruses and are able to protect HeLa Ohio cells from CPE induced by viral infection and replication. Protected cells remain viable following viral infection and therefore have greater ATP levels.
Compounds were dissolved in 100% DMSO to a concentration of 3 mM and subsequent dilutions were prepared in 100% DMSO using a 1:3 serial step dilution. A 0.5 μL stamp from an 10-point titration was transferred to a white 96 well Greiner tissue culture flat bottom plate (655083). A 0.5 μL stamp of 100% DMSO was stamped into columns 11 and 12 of the plate, ensuring a final assay DMSO concentration of 0.33% across the plate and a compound top final assay concentration of 10 μM.
HeLa Ohio cells were cultured at 37° C., 5% CO2 in media (DMEM supplemented with 10% Australian origin foetal bovine serum and 2 mM glutamax). Cells were passaged when confluency reached >80%. For the assay, cells were grown to 80-90% confluency before detachment.
Cells were detached for the assay by washing with PBS and detached using 3 mL TrypLE Express for […] at 37° C. Detached cells were mixed with 7 mL of media and centrifuged at 300 g for 5 min. The cell pellet was resuspended in 50 mL media and counted on a Beckman Coulter ViCell. Cells were diluted to 6.6×10^4 cells/mL and some of the cell volume was removed into a new tube to be used as a column 12 control. HRVA16 stock was added to the remaining cell suspension at the appropriate dilution for the virus stock to achieve an MOI of 1.
150 μL of the cell+virus suspension was added per well to columns 1-11 using a Multidrop Combi. 150 μL of the separate cell suspension was added per well to columns 12 using a multichannel pipette. Assay plates were sealed and incubated at 33° C., 5% CO2 for 2 days. After 2 days, assay plates were removed from the incubator and allowed to equilibrate to room temperature. 60 μL of CellTiter-Glo reagent was added to all wells using a Thermo Scientific Multidrop Combi. Plates were incubated at room temperature for 20 min before reading on an a Perkin Elmer Envision (Settings: Gripper height 2.5, Fixed measurement height (mm) 6.5, Distance between plate and detector 0, Measurement time (s) 0.1, Glow (ct2) correction factor (0%)).
The inhibitory effect of the compounds on the PI4 KB activity was evaluated by the IC50 of the response relative to the high (no virus, column 12) and low (virus+no inhibitor, column 11) controls by fitting to a four parameter dose response equation.
For orientation: Cytopathic effects are the visible damage that an infection or toxin causes in cultured cells.

SMILES strings stand for the structures.

T1 sequence (Q9UBF8 1-801 isoform Q9UBF8-2): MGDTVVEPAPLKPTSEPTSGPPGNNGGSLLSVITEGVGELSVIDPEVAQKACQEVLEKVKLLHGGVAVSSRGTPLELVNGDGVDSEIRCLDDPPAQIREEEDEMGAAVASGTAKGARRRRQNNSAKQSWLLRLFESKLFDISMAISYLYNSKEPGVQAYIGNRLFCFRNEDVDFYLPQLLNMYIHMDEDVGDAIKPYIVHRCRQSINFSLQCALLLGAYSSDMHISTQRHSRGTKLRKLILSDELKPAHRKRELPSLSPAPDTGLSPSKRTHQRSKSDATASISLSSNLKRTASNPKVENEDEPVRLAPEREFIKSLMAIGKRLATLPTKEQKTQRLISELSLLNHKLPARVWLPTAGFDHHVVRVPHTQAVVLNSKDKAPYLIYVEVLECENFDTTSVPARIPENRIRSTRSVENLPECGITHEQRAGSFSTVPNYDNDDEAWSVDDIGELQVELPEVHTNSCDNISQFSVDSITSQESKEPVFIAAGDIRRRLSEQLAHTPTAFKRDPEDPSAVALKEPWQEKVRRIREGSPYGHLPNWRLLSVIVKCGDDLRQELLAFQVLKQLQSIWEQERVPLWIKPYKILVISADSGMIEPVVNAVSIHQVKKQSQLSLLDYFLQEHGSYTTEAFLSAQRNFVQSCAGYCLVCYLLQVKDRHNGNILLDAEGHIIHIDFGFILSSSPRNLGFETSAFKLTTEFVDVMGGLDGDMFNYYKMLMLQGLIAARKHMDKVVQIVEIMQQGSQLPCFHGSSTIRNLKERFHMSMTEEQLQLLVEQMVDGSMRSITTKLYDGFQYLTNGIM

In the case of `COc1ccc(-c2c(C)nn3c(NCc4cccc(-c5nccn5C)c4)cc(C(C)O)nc23)cc1S(=O)(=O)CCO` (single isomer, unassigned) [Compound 71, 2-((5-(5-(1-Hydroxyethyl)-2-methyl-7-((3-(1-methyl-1H-imidazol-2-yl)benzyl)amino)pyrazolo[1,5-a]pyrimidin-3-yl)-2-methoxyphenyl)sulfonyl)ethan-1-ol], the IC50 in experiment [1] is no more than 3.98 nM; in experiment [2], no more than 25.1 nM.

On to `CCC(O)c1cc(NCc2cccc(-c3nccn3C)c2)n2nc(C)c(-c3ccc(OC)c(C(=O)N(C)C4CCOCC4)c3)c2n1` (single isomer, unassigned) [Compound 77, 5-(5-(1-Hydroxypropyl)-2-methyl-7-((3-(1-methyl-1H-imidazol-2-yl)benzyl)amino)pyrazolo[1,5-a]pyrimidin-3-yl)-2-methoxy-N-methyl-N-(tetrahydro-2H-pyran-4-yl)benzamide], for which the IC50 in experiment [1] was no more than 3.98 nM; in experiment [2], no more than 25.1 nM.

`COc1ccc(-c2c(C)nn3c(NCc4cccc(-c5nccn5C)c4)cc(C(C)O)nc23)cc1S(=O)(=O)CCO` (stereo not shown) [Compound 2, 2-((5-(5-(1-Hydroxyethyl)-2-methyl-7-((3-(1-methyl-1H-imidazol-2-yl)benzyl)amino)pyrazolo[1,5-a]pyrimidin-3-yl)-2-methoxyphenyl)sulfonyl)ethan-1-ol]: the IC50 in experiment [1] is no more than 3.98 nM; in experiment [2], no more than 25.1 nM.

`COc1ccc(-c2c(C)nn3c(NCc4cccc(-c5nccn5C)c4)cc(C(O)C4CC4)nc23)cc1S(=O)(=O)CCO` (stereo not shown) [Compound 4]: the IC50 in experiment [1] is no more than 3.98 nM; in experiment [2], no more than 25.1 nM.

Consider `COc1ccc(-c2c(C)nn3c(NCc4cccc(-c5nccn5C)c4)cc(C(C)(C)O)nc23)cc1C(=O)N1CC[C@H](O)C1` [Compound 8, (S)-(5-(5-(2-Hydroxypropan-2-yl)-2-methyl-7-((3-(1-methyl-1H-imidazol-2-yl)benzyl)amino)pyrazolo[1,5-a]pyrimidin-3-yl)-2-methoxyphenyl)(3-hydroxypyrrolidin-1-yl)methanone], for which the IC50 in experiment [2] is no more than 25.1 nM.

As for `Cc1ccc(-c2c(C)nn3c(NCc4cccc(-c5nccn5C)c4)cc(C(C)O)nc23)cc1C(=O)N(C)CCCO` (stereo not shown) [Compound 13], the IC50 in experiment [2] was no more than 25.1 nM.

For the compound `COc1ccc(-c2c(C)nn3c(NCc4cccc(-c5nccn5C)c4)cc(C(C)(C)O)nc23)cc1C(=O)N(C)CCO` [Compound 26], the IC50 in experiment [1] is no more than 3.98 nM; in experiment [2] it was no more than 25.1 nM.

For `COc1ccc(-c2c(C)nn3c(NCc4cccc(-c5nccn5C)c4)cc(C(C)(C)O)nc23)cc1C(=O)N1CCC(C)(O)C1` (stereo not shown) [Compound 27], the figures for the IC50 in experiment [1] and in experiment [2] were no more than 3.98 nM and no more than 25.1 nM, respectively.

Regarding `COc1ccc(-c2c(C)nn3c(NCc4cccc(-c5nccn5C)c4)cc(C(C)(C)O)nc23)cc1C(=O)N1CCCOCC1` [Compound 28], the IC50 is no more than 3.98 nM in experiment [1] and no more than 25.1 nM in experiment [2].

Turning to `COc1ccc(-c2c(C)nn3c(NCc4cccc(-c5nccn5C)c4)cc(C(C)(C)O)nc23)cc1C(=O)N1CCOC[C@@H]1C` [Compound 30], the IC50 in experiment [2] was no more than 25.1 nM.

Consider `COc1ccc(-c2c(C)nn3c(NCc4cccc(-c5nccn5C)c4)cc(C(C)(C)O)nc23)cc1C(=O)N(C)CCCO` [Compound 32, 5-(5-(2-hydroxypropan-2-yl)-2-methyl-7-((3-(1-methyl-1H-imidazol-2-yl)benzyl)amino)pyrazolo[1,5-a]pyrimidin-3-yl)-N-(3-hydroxypropyl)-2-methoxy-N-methylbenzamide], for which the results for the IC50 in experiment [1] and in experiment [2] were no more than 3.98 nM and no more than 25.1 nM, respectively.

For the compound `CCN(CCO)C(=O)c1cc(-c2c(C)nn3c(NCc4cccc(-c5nccn5C)c4)cc(C(C)(C)O)nc23)ccc1C` [Compound 38, N-ethyl-N-(2-hydroxyethyl)-5-(5-(2-hydroxypropan-2-yl)-2-methyl-7-((3-(1-methyl-1H-imidazol-2-yl)benzyl)amino)pyrazolo[1,5-a]pyrimidin-3-yl)-2-methylbenzamide], the results for the IC50 in experiment [1] and in experiment [2] were no more than 3.98 nM and no more than 25.1 nM, respectively.

As to `Cc1ccc(-c2c(C)nn3c(NCc4cccc(-c5nccn5C)c4)cc(C(C)CO)nc23)cc1C(=O)N(C)CCCO` (stereo not shown) [Compound 54, 5-(5-(1-Hydroxypropan-2-yl)-2-methyl-7-((3-(1-methyl-1H-imidazol-2-yl)benzyl)amino)pyrazolo[1,5-a]pyrimidin-3-yl)-N-(3-hydroxypropyl)-N,2-dimethylbenzamide], the IC50 in experiment [1] is no more than 3.98 nM; in experiment [2] it was no more than 25.1 nM.

Consider `Cc1ccc(-c2c(C)nn3c(NCc4cccc(-c5nccn5C)c4)cc(C(C)(C)O)nc23)cc1C(=O)NCCCO` [Compound 60], for which the values for the IC50 in experiment [1] and in experiment [2] were no more than 3.98 nM and no more than 25.1 nM, respectively.

`Cc1ccc(-c2c(C)nn3c(NCc4cccc(-c5nccn5C)c4)cc(C4(O)CC4)nc23)cc1C(=O)N(C)CCCO` [Compound 79, 5-(5-(1-Hydroxycyclopropyl)-2-methyl-7-((3-(1-methyl-1H-imidazol-2-yl)benzyl)amino)pyrazolo[1,5-a]pyrimidin-3-yl)-N-(3-hydroxypropyl)-N,2-dimethylbenzamide]: the IC50 in experiment [1] was no more than 3.98 nM; in experiment [2], no more than 25.1 nM.

Regarding `COc1ccc(-c2c(C)nn3c(NCc4cccc(-c5nccn5C)c4)cc(CC4CCOCC4)nc23)cc1S(=O)(=O)CCO` [Compound 85, 2-((2-Methoxy-5-(2-methyl-7-((3-(1-methyl-1H-imidazol-2-yl)benzyl)amino)-5-((tetrahydro-2H-pyran-4-yl)methyl)pyrazolo[1,5-a]pyrimidin-3-yl)phenyl)sulfonyl)ethan-1-ol], the IC50 was no more than 3.98 nM in experiment [1] and no more than 25.1 nM in experiment [2].

With `Cc1nn2c(NCc3cccc(-c4nccn4C)c3)cc(C(C)(C)O)nc2c1-c1cccc(C(=O)N(C)CCCO)c1` [Compound 87, 3-(5-(2-Hydroxypropan-2-yl)-2-methyl-7-((3-(1-methyl-1H-imidazol-2-yl)benzyl)amino)pyrazolo[1,5-a]pyrimidin-3-yl)-N-(3-hydroxypropyl)-N-methylbenzamide], the IC50 in experiment [1] was no more than 3.98 nM; in experiment [2] it was no more than 25.1 nM.
